# From publication PMC3788796, “The Antimicrobial Domains of Wheat Puroindolines Are Cell-Penetrating Peptides with Possible Intracellular Mechanisms of Action” (PLoS ONE, 2013)
# Several values for one entry are separate records, joined by “and”; a condition that tells them apart may be missing. Equal values may be shown once.
# What was measured:
# E. coli (ATCC 25922) = test: E. coli filamentation assay (in vivo inhibition of DNA synthesis); assay type: cell-based, Escherichia coli; conditions: peptide 2–250 µg/mL, 3 h 37°C, Crystal Violet, light microscopy 1000×; triplicate
# Experimental: The method as described was used to assess if the PIN-based peptides cause filamentation of E. coli cells, indicative of inhibition of in vivo DNA synthesis. E. coli (ATCC 25922) grown to logarithmic phase (OD600 = 0.2) was diluted to OD600 of ∼0.04. 75 µL of this culture was mixed with 25 µL of a peptide solution (to a final peptide concentration of 2–250 µg/mL) and incubated for 3 h at 37°C. 50 µL of the sample was spotted onto a glass slide, air dried, and stained with Crystal Violet for 1 min. Peptide mixed with water was used as negative control, and the Trp-rich AMP indolicidin (ILPWKWPWWPWRR-NH2) was used as a positive control due to its known filamentation effect. All samples were tested in triplicate. The cells were observed by light microscopy (1000×magnification).
# S. cerevisiae cells = test: Propidium iodide uptake by yeast cells; assay type: cell-based, Saccharomyces cerevisiae; conditions: peptide 125 µg/mL, 1 h 30°C in PBS pH 7.4, PI 6 µg/mL 5 min; no-peptide control 5.7; average of 4 fields, two independent experiments
# Experimental: S. cerevisiae was grown overnight at 30°C in 100 mL PDB and the cells collected by centrifugation and resuspended in Phosphate Buffered Saline (PBS: 137 mM NaCl, 2.7 mM KCl, 8 mM Na2HPO4, 1.46 mM KH2PO4; pH 7.4) to ∼1.5×10^7 cells/mL (OD600 = 0.6–0.8). 75 µL of the suspension was incubated with 25 µL of stock solutions of PuroA, Pina-M, Pina-W→F, PuroB and indolicidin (to give a final peptide concentration of 64, 125, 250 or 500 µg/mL), or with PBS (for no-peptide controls) for 1 h at 30°C, followed by staining with propidium iodide (PI) as described. PI stock solution (60 µg/mL) was prepared in MilliQ water and stored in dark at −20°C. It was diluted to 12 µg/mL before use, mixed 1∶1 with peptide-treated or untreated yeast cells (to final PI concentration 6 µg/mL), and the samples incubated in the dark for 5 min. A 10 µL aliquot of these was examined using a Nikon Eclipse 50 i fluorescence microscope with 561 nm excitation and 630/22 emission filter, at 400×magnification. The photomicrographs were taken under light and fluorescence for each field. Five randomly selected fields were recorded and scored for each sample.
# E. coli cells = conditions: data from previous work; cited from earlier work
# [1] = test system: Saccharomyces cerevisiae (ATCC 287); test: MIC of the peptides against yeast cells; assay type: cell-based; conditions: PDB, 96-well two-fold dilution 250 to 2 µg/mL, 0.5–2×10^3 cells/mL, overnight 30°C, growth observed visually
# Experimental: Saccharomyces cerevisiae (ATCC 287) was grown in Potato Dextrose Broth (PDB) overnight at 30°C with shaking at 220 rpm. The cultures were vortexed vigorously and the cell suspension adjusted to 1–5×10^6 cells/mL with PDB (McFarland standard 0.5) and then diluted 1∶200 with PDB to a final concentration of 0.5–2×10^3 cells/mL [37]. The MIC assays were carried out in 96-well plates as described previously. Peptides (PuroA, Pina-M, Pina-W→F and PuroB) in 25 µL volumes were added to the first empty well and a two-fold dilution was carried out across each row with a starting peptide concentration of 250 µg/mL and a final one of 2 µg/mL. Test wells were subsequently inoculated with 75 µL yeast cells (0.5–2×10^3 cells/mL) and incubated overnight at 30°C. Negative control (no peptide) and positive control (fungicide Mycobutanil) wells were also prepared. The MIC was defined as the lowest concentration of the peptide required to inhibit fungal growth, observed visually.
# [2] = test system: plasmid DNA (pBluescript SK+); test: Gel retardation assay for in vitro DNA binding; conditions: 100 ng plasmid DNA in 10 µL MilliQ water, 1 h room temperature, peptide 16–500 µg/mL, post-electrophoresis EtBr staining, triplicate assays; for Peptide concentration inducing gel retardation, Full: complete inhibition of migration
# Experimental: This test assesses any peptide-DNA binding by noting the retardation of the rate of migration of DNA bands through agarose gels. A number of methods were tested. As per Hsu et al., DNA of a plasmid (200 ng) or a commercial molecular weight marker (50 ng) was mixed with a peptide (to final concentrations of 32, 64, 125 or 250 µg/mL) in 15 µL of 10 mM Tris-1 mM EDTA buffer (pH 8.0), incubated at room temperature for 2 min, then electrophoresed in 0.5% or 1.0% agarose gels containing 0.5 µg/mL ethidium bromide (EtBr). Following Park et al., 100 ng plasmid DNA was mixed with a peptide (to different concentrations) in 20 µL binding buffer (5% glycerol, 10 mM Tris-HCl (pH 8.0), 1 mM EDTA, 1 mM DTT, 20 mM KCl, 50 µg/mL BSA), held for 1 h at room temperature, then electrophoresed in EtBr-containing gels. Finally the protocols were modified to eliminate any interference of EtBr in the initial peptide-DNA binding. Plasmid DNA (100 ng) was mixed with a peptide (to final concentrations of 16, 32, 64, 125, 250 or 500 µg/mL) in 10 µL of MilliQ water, held at room temperature for 1 h and electrophoresed, followed by emersion of gels in EtBr solution (0.5 µg/mL) for 30 min before imaging.
# [3] = Calcein dye leakage from mammalian-mimicking LUVs; assay type: biochemical; conditions: positive control, 1.0% Triton X100; average of duplicate experiments
# Experimental: (§1) A calcein leakage assay as previously described was performed to determine the effects of PIN-based peptides on the permeability of synthetic large unilamellar vesicles (LUVs), designed to mimic bacterial and mammalian cell membranes. The phospholipids used were DOPC (1,2-dioleoyl-sn-glycero-3-phosphocholine), with zwitterionic head groups and DOPG (1,2-dioleoyl-sn-glycerol-3-[phosphor-rac-(1-glycerol)]), with negatively charged headgroups (Avanti® Polar lipids, Alabaster, USA). These were used to make DOPC:DOPG (1∶3) LUVs to mimic bacterial cell membranes, or DOPC only, to mimic mammalian cell membranes. Calcein-entrapped LUVs were prepared by the extrusion method using an Avanti mini extrusion apparatus (Avanti® Polar Lipids, Alabaster, USA). The DOPC:DOPG (a 1∶3 mixture) or DOPC were dissolved in chloroform (25 mg/mL) and aliquoted into glass test tubes to give a concentration of 2.6 mM when resuspended in 2 mL buffer. Chloroform was evaporated under a stream of N2 and the lipid films were dried overnight under vacuum. The films were then resuspended in 2.0 mL of 70 mM calcein buffer (in 10 mM Tris-HCl, pH 7.4) and incubated at room temperature for 30 minutes. To increase entrapment of the dye, five repeated freeze\thaw cycles were used by placing the vial in liquid N2 and then a warm water bath (37°C). The lipid mixture was then extruded through the mini-extruder 10 times through two stacked 0.1 µm pore-size filters. Free calcein was removed by centrifugation (10, 000×g, 10 min) three times and washing with 10 mM Tris, 100 mM NaCl buffer (pH 7.4). Standards of phosphorus (inorganic P; Pi) were prepared (0.05–1.5 mg/mL) using KH2PO4 and read at 820 nm and a linear standard curve was generated (Figure S1 in File S1). The phospholipid concentration of the vesicle preparations was determined by a total phosphorus assay. The assay reagent was prepared fresh by mixing 1 part of 1% ascorbic acid with 6 parts of 0.42% ammonium molybdate•4H2O in H2SO4 and stored on ice. 7 µL of it was added to 3 µL of vesicle suspensions and incubated for 20 min at 45°C. […] The standard curve of phosphorus standards (Figure S1 in File S1) was used to determine the Pi concentration in a LUV preparation, and this was converted to phospholipid concentration (Table S1 in File S1) to adjust the preparations to the required 10 µM phospholipid concentration prior to peptide treatment.
# (§2) The calcein-filled LUVs were diluted with 10 mM Tris, 100 mM NaCl buffer (pH 7.4) to a final phospholipid concentration of 10 µM. The experiments were performed in a Varian Cary Eclipse fluorescence spectrophotometer with excitation and emission wavelengths of 496 nm and 515 nm, slit widths of […] and a PMT detector of 600 V. The peptides (PuroA, Pina-M, Pina-W→F and PuroB) were added to LUVs to a final peptide concentration of 8–125 µg/mL in 100 µL volumes and the fluorescence (F) monitored for 5 min at 60 s intervals. The total calcein fluorescence (FT) was determined by addition of 1.0% Triton X100. The dye leakage was calculated as % Leakage = ((F – F0)/(FT – F0)), F0 being fluorescence of each sample at T = 0.
# [4] = Calcein dye leakage from bacteria-mimicking LUVs; assay type: biochemical; conditions: positive control, 1.0% Triton X100; average of duplicate experiments
# Experimental: as §1, §2
Compound,Minimum peptide concentration inducing filamentation in E. coli (E. coli (ATCC 25922)) [µg/mL],% fluorescent cells (propidium iodide uptake) (S. cerevisiae cells) [%],MIC against E. coli cells (E. coli cells) [µg/mL],MIC against S. cerevisiae [1] [µg/mL],"Peptide concentration inducing gel retardation, Partial [2] [µg/mL]","Peptide concentration inducing gel retardation, Full [2]","Peptide concentration inducing gel retardation, Full ([2]; listed as indolicidin) [µg/mL]",% Calcein leakage from DOPC LUVs [3] [%],% Calcein leakage from DOPC:DOPG LUVs [4] [%]
"CC[C@H](C)[C@H](N)C(=O)N[C@@H](CC(C)C)C(=O)N1CCC[C@H]1C(=O)N[C@@H](Cc1c[nH]c2ccccc12)C(=O)N[C@@H](CCCCN)C(=O)N[C@@H](Cc1c[nH]c2ccccc12)C(=O)N1CCC[C@H]1C(=O)N[C@@H](Cc1c[nH]c2ccccc12)C(=O)N[C@@H](Cc1c[nH]c2ccccc12)C(=O)N1CCC[C@H]1C(=O)N[C@@H](Cc1c[nH]c2ccccc12)C(=O)N[C@@H](CCCNC(=N)N)C(=O)N[C@@H](CCCNC(=N)N)C(N)=O [Indolicidin, reference compound]",32 ± 0,100,32 ± 0,125,32 ± 0,64 ± 0 µg/mL,64,,
Triton x100 [reference compound],,,,,,,,99.0,99.0
"MPLSWFFPRTWGKR-NH2 [GSP-5D, peptide based on the wheat Grain softness protein-1 (Gsp-1-5D)]",,,64 ± 0,,32 ± 0,64 µg/mL and 64 ± 0 µg/mL,,,
